This note sets out measurements from patent publication US20160200769A1, “Compound, Transitmycin, Effective Against Bacterial and Viral Pathogens” (INDIAN COUNCIL OF MEDICAL RESEARCH, priority 2013, published 2016).

The test system of this test is M. tuberculosis SHRE resistant. The test is described as follows: microbe, parasite or virus in culture. In kind it is cell-based. The note with it: Mycobacterium tuberculosis.

*1 amine or outer side, *2 acyl side, *3 side chain or, on linkers, in order; H or OH if unused. Where a SMILES comes first, the peptide text is derived from it. Bridges are numbered along the chain shown (N, C = ends). Roman numbers before positions name the chains, in order. [ ]: non-standard residue; d: D form. Actinocin(1to9) = Cc1c2oc3c(C)ccc(C(=O)[*:2])c3nc-2c(C(=O)[*:1])c(N)c1=O; Pro(4-oxo) = O=C1CN[C@H](C(=O)O)C1; NMeV = CN[C@H](C(=O)O)C(C)C; Sar = CNCC(=O)O

For the compound `Cc1c2oc3c(C)ccc(C(=O)N[C@@H]4C(=O)N[C@@H](C(C)C)C(=O)N5CCC[C@H]5C(=O)N(C)CC(=O)N(C)[C@@H](C(C)C)C(=O)O[C@@H]4C)c3nc-2c(C(=O)N[C@@H]2C(=O)N[C@@H](C(C)C)C(=O)N3CC(=O)C[C@H]3C(=O)N(C)CC(=O)N(C)[C@@H](C(C)C)C(=O)O[C@@H]2C)c(N)c1=O` [compound of formula (I), Transitmycin] (I: TV[Pro(4-oxo)][Sar][NMeV] / II: TVP[Sar][NMeV]; ester I:1-I:C, II:1-II:C; linker I:N-II:N via Actinocin(1to9)), the MIC came out at 6.25 µg/mL.
